Laboratory results published in patent US9834550B2, “Pyridopyrimidinone compounds for modulating the catalytic activity of histone lysine demethylases (KDMs)” (Dong-A Socio Holdings Co., Ltd., priority 2014, dated 2017).

What follows are compounds tested against T1, Recombinant human JARID1B/KDM5B (Homo sapiens, UniProt Q9UGL1) (assay: LANCE Ultra TR-FRET demethylase assay with FLAG-tagged JARID1B). Conditions: 100 nM compound; 500 nM biotinylated H3K4me3 peptide substrate.
T1 construct: purchased Active Motif 31432; host or cells: Sf9 insect cells
T1 sequence (Q9UGL1 whole entry): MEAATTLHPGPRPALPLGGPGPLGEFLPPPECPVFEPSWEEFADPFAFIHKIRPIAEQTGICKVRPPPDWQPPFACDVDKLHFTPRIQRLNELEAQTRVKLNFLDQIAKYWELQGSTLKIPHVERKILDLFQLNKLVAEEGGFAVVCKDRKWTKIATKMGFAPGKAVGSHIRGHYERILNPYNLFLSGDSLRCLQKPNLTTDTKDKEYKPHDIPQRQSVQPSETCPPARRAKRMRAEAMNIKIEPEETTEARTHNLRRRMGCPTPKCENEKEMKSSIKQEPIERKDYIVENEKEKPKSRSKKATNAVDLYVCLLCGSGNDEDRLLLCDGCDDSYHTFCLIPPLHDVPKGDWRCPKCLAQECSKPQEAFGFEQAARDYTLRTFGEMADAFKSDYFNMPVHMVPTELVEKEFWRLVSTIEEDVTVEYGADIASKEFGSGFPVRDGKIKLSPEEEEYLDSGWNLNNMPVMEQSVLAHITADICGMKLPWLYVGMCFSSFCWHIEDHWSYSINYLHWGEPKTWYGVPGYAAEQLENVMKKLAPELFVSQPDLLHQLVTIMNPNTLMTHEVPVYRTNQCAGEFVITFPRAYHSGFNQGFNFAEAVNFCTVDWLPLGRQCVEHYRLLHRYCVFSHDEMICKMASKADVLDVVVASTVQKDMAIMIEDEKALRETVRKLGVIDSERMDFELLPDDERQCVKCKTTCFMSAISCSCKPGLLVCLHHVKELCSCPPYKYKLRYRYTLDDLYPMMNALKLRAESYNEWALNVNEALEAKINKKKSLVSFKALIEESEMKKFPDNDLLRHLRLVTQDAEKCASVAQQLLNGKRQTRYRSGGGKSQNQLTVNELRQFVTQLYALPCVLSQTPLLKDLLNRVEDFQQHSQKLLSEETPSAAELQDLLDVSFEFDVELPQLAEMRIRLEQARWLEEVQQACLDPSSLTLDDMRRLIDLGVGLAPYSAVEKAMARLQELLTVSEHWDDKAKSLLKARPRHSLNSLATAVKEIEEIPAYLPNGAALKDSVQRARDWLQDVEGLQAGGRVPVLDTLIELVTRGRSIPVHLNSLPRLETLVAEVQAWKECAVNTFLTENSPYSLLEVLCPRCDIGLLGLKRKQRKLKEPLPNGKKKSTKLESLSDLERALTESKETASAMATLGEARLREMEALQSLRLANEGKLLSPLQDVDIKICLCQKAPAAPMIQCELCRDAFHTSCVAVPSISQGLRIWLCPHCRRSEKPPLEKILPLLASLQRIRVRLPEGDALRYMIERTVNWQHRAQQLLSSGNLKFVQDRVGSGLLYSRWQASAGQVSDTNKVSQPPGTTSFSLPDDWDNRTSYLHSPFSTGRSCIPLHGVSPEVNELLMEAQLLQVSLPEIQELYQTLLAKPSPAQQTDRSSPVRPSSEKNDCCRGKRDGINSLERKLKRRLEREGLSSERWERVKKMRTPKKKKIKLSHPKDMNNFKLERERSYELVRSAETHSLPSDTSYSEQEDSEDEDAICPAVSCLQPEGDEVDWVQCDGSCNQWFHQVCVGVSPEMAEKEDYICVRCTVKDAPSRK
Format: biochemical
Excerpt: FLAG-tagged JARID1B (also known as KDM5B) protein was screened against more than 170 compounds. For this compound screening, LANCE Ultra time-resolved fluorescence resonance energy transfer (TR-FRET) assay was employed using an europoium (Eu)-labeled antibody that can specifically recognize mono- or dimethylated peptides (H3K4me2/1) and ULight-streptavidin (ULight-SA), a small molecule fluorescent dye. When irradiated at 340 nm, the energy from the Eu donor is transferred to the ULight acceptor dye which, in turn, emits light primarily at 665 nm. The ratio between the intensity of primary emission at 665 nm and that of secondary emission at 590 nm was used to quantify the level of lysine methylation. As JARID1B removes more methyl moieties from tri-methylated substrate peptides (H3K4me3), the ratio increases until the enzyme reaction is terminated. In case, therefore, the compounds disrupt the enzymatic activity completely, the ratio becomes equal to a background value.
Recombinant human JARID1B/KDM5B (accession number NP_006609) of molecular weight 179.9 KDa was expressed in Sf9 insect cells and contains an N-terminal FLAG tag. The enzyme was obtained from Active Motif (Catalog No. 31432). The tri-methylated histone substrate peptide of purity greater than 95% was a synthetic peptide in which the first 21 amino acids correspond to the human histone H3 sequence with three extra amino acids and a biotin motif (GGK-biotin) linked to the C-terminus [sequence: ART-K (Me3)-QTARKSTGGKAPRKQLA-GGK-biotin-OH], (AnaSpec, Fremont, Calif. Catalog. No. ANA-1413). The reference inhibitory compound tranylcypromine (or trans-2-phenylcyclopropylamine hydrochloride, also known as, 2-PCPA) was purchased from Sigma (St. Louis, Mo. Cat. no. P8511). ULight-labeled streptavidin (ULight-SA, Catalog no. TRF0102), Eu-W1024-labeled anti-methyl-Histone H3 Lysine 4 (H3K4me1-2) Antibody (Catalog no. TRF0402), and LANCE detection buffer 10× (Catalog no. CR97-100) were obtained from PerkinElmer (Montreal, Quebec, Canada). The TR-FRET experiments were carried out in white, low-volume 384-wellplates purchased from PerkinElmer (ProxiPlate-384 Plus, Catalog no. 6008280).
The TR-FRET signal was measured in the presence both of the bio-H3K4me3 peptide and FLAG-JARID1B by detecting any H3K4me2/1 peptide produced in the assay system. Assays using only the bio-H3K4me2 peptide were served as a positive control. Robust enzymatic progressions were observed by using JARID1B at concentrations ranging from 10 to 30 nM. In a typical TR-FRET experiment, JARID1B was pre-incubated with or without 20 uM, 1 uM, or 0.1 uM of test-compounds (containing 1% DMSO final) for […]. The enzymatic reactions were initiated by the addition of 500 nM biotinylated H3K4me3 peptide substrate plus 500 uM of 2-OG, 25 uM Fe(II) and 2 mM ascorbate. The reaction buffer also contained 50 mM Hepes (pH7.5), 0.01% (v/v) Tween 20, and 50 mM NaCl. The reaction mixture was incubated for […] at room temperature before reading on an EnVision plate reader (PerkinElmer, Waltham, Mass.).

| SMILES | inhibition at 0.1 µM |
| --- | --- |
| O=c1[nH]c(COc2ccccc2Cl)nc2c(CNCC3CCNCC3)nccc12 [Example 122, 2-((2-chlorophenoxy)methyl)-8-(((piperidin-4-ylmethyl)amino)methyl)pyrido[3,4-d]pyrimidin-4(3H)-one] | 20 to 50% |
| CC(Oc1ccc(Cc2ccccc2)cc1)c1nc2c(CNCC3CCNCC3)nccc2c(=O)[nH]1 (centres unmarked) [Example 212, 2-(1-(4-benzylphenoxy)ethyl)-8-(((piperidin-4-ylmethyl)amino)methyl)pyrido[3,4-d]pyrimidin-4(3H)-one] | 20 to 50% |
| O=c1[nH]c(COc2ccc(F)c(Cl)c2)nc2c(CNCc3ccco3)nccc12 [Example 171, 2-((3-chloro-4-fluorophenoxy)methyl)-8-(((furan-2-ylmethyl)amino)methyl)pyrido[3,4-d]pyrimidin-4(3H)-one] | 20 to 50% |
| O=c1[nH]c(COc2cnc(Br)cn2)nc2c(CNCC3CCNCC3)nccc12 [Example 131, 2-(((5-bromopyrazin-2-yl)oxy)methyl)-8-(((piperidin-4-ylmethyl)amino)methyl)pyrido[3,4-d]pyrimidin-4(3H)-one] | 20 to 50% |
| O=c1[nH]c(COc2ccccc2Cl)nc2c(CNCC3CCN(Cc4ccccc4)CC3)nccc12 [Example 105, 8-((((1-benzylpiperidin-4-yl)methyl)amino)methyl)-2-((2-chlorophenoxy)methyl)pyrido[3,4-d]pyrimidin-4(3H)-one] | > 50% |
| CN1CCC(CNCc2nccc3c(=O)[nH]cnc23)C1 (centres unmarked) [Example 92, 8-((((1-methylpyrrolidin-3-yl)methyl)amino)methyl)pyrido[3,4-d]pyrimidin-4(3H)-one] | 20 to 50% |
| CN1CCC(CNCc2nccc3c(=O)[nH]c(C4CCOC4)nc23)CC1 (centres unmarked) [Example 196, 8-((((1-methylpiperidin-4-yl)methyl)amino)methyl)-2-(tetrahydrofuran-3-yl)pyrido[3,4-d]pyrimidin-4(3H)-one] | < 20% |
| O=c1[nH]c(COc2ccc(Cc3ccccc3)cc2)nc2c(CNC[C@@H]3CCCNC3)nccc12 [Example 154, (R)-2-((4-benzylphenoxy)methyl)-8-(((piperidin-3-ylmethyl)amino)methyl)pyrido[3,4-d]pyrimidin-4(3H)-one] | > 50% |
| O=c1[nH]c(COc2ccc(F)c(Cl)c2)nc2c(CNCC3CCCOC3)nccc12 (centres unmarked) [Example 162, 2-((3-chloro-4-fluorophenoxy)methyl)-8-((((tetrahydro-2H-pyran-3-yl)methyl)amino)methyl)pyrido[3,4-d]pyrimidin-4(3H)-one] | < 20% |
| O=C(NCc1nccc2c(=O)[nH]c(COc3ccc(F)c(Cl)c3)nc12)C1CCCNC1 (centres unmarked) [Example 241, N-((2-((3-chloro-4-fluorophenoxy)methyl)-4-oxo-3,4-dihydropyrido[3,4-d]pyrimidin-8-yl)methyl)piperidine-3-carboxamide] | < 20% |
| C[C@@H](Oc1ccc(Cc2ccccc2)cc1)c1nc2c(CNCC3CCNCC3)nccc2c(=O)[nH]1 [Example 215, (R)-2-(1-(4-benzylphenoxy)ethyl)-8-(((piperidin-4-ylmethyl)amino)methyl)pyrido[3,4-d]pyrimidin-4(3H)-one] | > 50% |
| O=c1[nH]c(COCc2cccc(Cl)c2)nc2c(CNC[C@H]3CCNC3)nccc12 [Example 208, (S)-2-(((3-chlorobenzyl)oxy)methyl)-8-(((pyrrolidin-3-ylmethyl)amino)methyl)pyrido[3,4-d]pyrimidin-4(3H)-one] | > 50% |
| CN1CCOC(CNCc2nccc3c(=O)[nH]c(COc4ccc(F)c(Cl)c4)nc23)C1 (centres unmarked) [Example 178, 2-((3-chloro-4-fluorophenoxy)methyl)-8-((((4-methylmorpholin-2-yl)methyl)amino)methyl)pyrido[3,4-d]pyrimidin-4(3H)-one] | 20 to 50% |
| Cc1ccc(Cl)c(OCc2nc3c(CNCC4CCNCC4)nccc3c(=O)[nH]2)c1 [Example 130, 2-((2-chloro-5-methylphenoxy)methyl)-8-(((piperidin-4-ylmethyl)amino)methyl)pyrido[3,4-d]pyrimidin-4(3H)-one] | > 50% |
| O=c1[nH]c(COCc2ccccc2Cl)nc2c(CNCC3CCNCC3)nccc12 [Example 209, 2-(((2-chlorobenzyl)oxy)methyl)-8-(((piperidin-4-ylmethyl)amino)methyl)pyrido[3,4-d]pyrimidin-4(3H)-one] | > 50% |
| O=c1[nH]cnc2c(CNCC3CCN(Cc4ccccc4)CC3)nccc12 [Example 96, 8-((((1-benzylpiperidin-4-yl)methyl)amino)methyl)pyrido[3,4-d]pyrimidin-4(3H)-one] | 20 to 50% |
| O=c1[nH]c(C2Cc3ccccc3O2)nc2c(CNCC3CCNCC3)nccc12 (centres unmarked) [Example 197, 2-(2,3-dihydrobenzofuran-2-yl)-8-(((piperidin-4-ylmethyl)amino)methyl)pyrido[3,4-d]pyrimidin-4(3H)-one] | 20 to 50% |
| O=c1[nH]c(COc2ccc(F)c(Cl)c2)nc2c(CNCc3ccccn3)nccc12 [Example 170, 2-((3-chloro-4-fluorophenoxy)methyl)-8-(((pyridin-2-ylmethyl)amino)methyl)pyrido[3,4-d]pyrimidin-4(3H)-one] | 20 to 50% |
| O=c1[nH]c(COc2cccc(CNC3CCOCC3)c2)nc2cnccc12 [Example 44, 2-((3-(((tetrahydro-2H-pyran-4-yl)amino)methyl)phenoxy)methyl)pyrido[3,4-d]pyrimidin-4(3H)-one] | < 20% |
| O=c1[nH]c(COc2ccc(F)c(Cl)c2)nc2c(CNCCc3ccccn3)nccc12 [Example 186, 2-((3-chloro-4-fluorophenoxy)methyl)-8-(((2-(pyridin-2-yl)ethyl)amino)methyl)pyrido[3,4-d]pyrimidin-4(3H)-one] | 20 to 50% |
| O=C(CNCc1nccc2c(=O)[nH]c(COc3ccc(F)c(Cl)c3)nc12)N[C@H]1CC[C@H](N2CCCC2)O1 (relative stereo) [Example 233, 2-(((2-((3-chloro-4-fluorophenoxy)methyl)-4-oxo-3,4-dihydropyrido[3,4-d]pyrimidin-8-yl)methyl)amino)-N-(trans-5-(pyrrolidin-1-yl)tetrahydrofuran-2-yl)acetamide] | > 50% |
| O=c1[nH]c(COc2cccc(Cl)c2)nc2c(CNCC3CCNCC3)nccc12 [Example 132, 2-((3-chlorophenoxy)methyl)-8-(((piperidin-4-ylmethyl)amino)methyl)pyrido[3,4-d]pyrimidin-4(3H)-one] | > 50% |
| O=C(CNCc1nccc2c(=O)[nH]c(COc3ccc(F)c(Cl)c3)nc12)N1CCC(N2CCCC2)CC1 [Example 234, 2-((3-chloro-4-fluorophenoxy)methyl)-8-(((2-oxo-2-(4-(pyrrolidin-1-yl)piperidin-1-yl)ethyl)amino)methyl)pyrido[3,4-d]pyrimidin-4(3H)-one] | > 50% |
| O=c1[nH]c(COc2ccc(F)c(Cl)c2)nc2c(CNCc3cccs3)nccc12 [Example 181, 2-((3-chloro-4-fluorophenoxy)methyl)-8-(((thiophen-2-ylmethyl)amino)methyl)pyrido[3,4-d]pyrimidin-4(3H)-one] | 20 to 50% |
| Cc1nccn1CCNCc1nccc2c(=O)[nH]c(COc3ccc(F)c(Cl)c3)nc12 [Example 175, 2-((3-chloro-4-fluorophenoxy)methyl)-8-(((2-(2-methyl-1H-imidazol-1-yl)ethyl)amino)methyl)pyrido[3,4-d]pyrimidin-4(3H)-one] | 20 to 50% |
| O=C(CNCc1nccc2c(=O)[nH]c(COc3ccc(F)c(Cl)c3)nc12)N[C@@H]1CCNC1 [Example 239, (R)-2-(((2-((3-chloro-4-fluorophenoxy)methyl)-4-oxo-3,4-dihydropyrido[3,4-d]pyrimidin-8-yl)methyl)amino)-N-(pyrrolidin-3-yl)acetamide] | > 50% |
